Values after ≈ are worked out from the molar mass of the structure shown. Square brackets hold non-standard residues; d marks the D form. Peptide text beside a SMILES is read from it.
Assays:
[1] = tested on: MRPA (P. aeruginosa) CCARM 2180; format: cell-based, Pseudomonas aeruginosa; settings: CCARM 2180, 18 h
In short: (§1)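 Mid-log cultures grown in CAMHB and diluted to 1× 10^6 cfu/ml in PBS were mixed with an equal volume of peptide in CAMHB (80 µM to 0.63 µM twofold dilutions). MIC taken as the mean of three independent experiments.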

[2] = tested on: MRSA (S. aureus) KCCM 40510; format: cell-based, Staphylococcus aureus; settings: KCCM 40510, 18 h
In short: as §1

[3] = tested on: MRAB (A. baumannii) ATCC BAA 1605; format: cell-based, Acinetobacter baumannii; settings: ATCC BAA 1605, 18 h
In short: as §1

[4] = tested on: VRE (E. faecalis) ATCC 51575; format: cell-based, Enterococcus faecalis; settings: ATCC 51575, 18 h
In short: as §1

| SMILES | MIC MRPA (P. aeruginosa) CCARM 2180 [1] | MIC MRSA (S. aureus) KCCM 40510 [2] | MIC MRAB (A. baumannii) ATCC BAA 1605 [3] | MIC VRE (E. faecalis) ATCC 51575 [4] |
| --- | --- | --- | --- | --- |
| CC[C@@H](C)[C@@H](NC(=O)[C@@H](Cc1c[nH]c2ccccc12)NC(=O)[C@@H](C)NC(=O)[C@@H](C)NC(=O)[C@H](N)Cc1c[nH]c2ccccc12)C(=O)NCC(=O)N[C@H](CC(C)C)C(=O)N[C@H](CCCNC(=N)N)C(=O)N[C@H](CCCNC(=N)N)C(=O)N[C@H](CCCCN)C(=O)N[C@H](CCCCN)C(N)=O [KSH76, waawiglrrkk] (H-[dW][dA][dA][dW][dI]G[dL][dR][dR][dK][dK]-NH2; N-terminus assumed) | >10 µM | >10 µM | 1.25~2.5 µM | >10 µM |
| CC[C@@H](C)[C@@H](NC(=O)[C@@H](Cc1c[nH]c2ccccc12)NC(=O)[C@@H](C)NC(=O)[C@@H](C)NC(=O)[C@H](N)Cc1c[nH]c2ccccc12)C(=O)NCC(=O)N[C@H](CC(C)C)C(=O)N[C@H](CCCNC(=N)N)C(=O)N[C@H](CCCCN)C(=O)N[C@H](CCCNC(=N)N)C(=O)N[C@H](CCCCN)C(N)=O [KSH77, waawiglrkrk] (H-[dW][dA][dA][dW][dI]G[dL][dR][dK][dR][dK]-NH2; N-terminus assumed) | >10 µM | >10 µM | 2.5 µM (≈ 3.46 µg/mL) | >10 µM |
| CC[C@@H](C)[C@@H](NC(=O)[C@@H](Cc1c[nH]c2ccccc12)NC(=O)[C@@H](C)NC(=O)[C@@H](C)NC(=O)[C@H](N)Cc1c[nH]c2ccccc12)C(=O)NCC(=O)N[C@H](CC(C)C)C(=O)N[C@H](CCCNC(=N)N)C(=O)N[C@H](CCCNC(=N)N)C(N)=O [KSH78, waawiglrr] (H-[dW][dA][dA][dW][dI]G[dL][dR][dR]-NH2; N-terminus assumed) | >10 µM | >10 µM | 5 µM (≈ 5.64 µg/mL) | >10 µM |
| CC(C)[C@@H](NC(=O)[C@@H](Cc1c[nH]c2ccccc12)NC(=O)[C@@H](Cc1c[nH]c2ccccc12)NC(=O)[C@H](NC(=O)[C@@H](Cc1c[nH]c2ccccc12)NC(=O)[C@@H](CCCNC(=N)N)NC(=O)[C@@H](CCCNC(=N)N)NC(=O)[C@H](N)CCCNC(=N)N)C(C)C)C(=O)N[C@H](Cc1c[nH]c2ccccc12)C(=O)N[C@H](Cc1c[nH]c2ccccc12)C(N)=O [KSH79, rrrwvwwvww] (H-[dR][dR][dR][dW][dV][dW][dW][dV][dW][dW]-NH2; N-terminus assumed) | 2.5 µM (≈ 4.04 µg/mL) | 1.25 µM (≈ 2.02 µg/mL) | 10 µM (≈ 16.1 µg/mL) | 1.25 µM (≈ 2.02 µg/mL) |
| CC(C)[C@@H](NC(=O)[C@@H](Cc1c[nH]c2ccccc12)NC(=O)[C@@H](CCCNC(=N)N)NC(=O)[C@@H](CCCNC(=N)N)NC(=O)[C@H](N)CCCNC(=N)N)C(=O)N[C@H](Cc1c[nH]c2ccccc12)C(=O)N[C@H](Cc1c[nH]c2ccccc12)C(=O)N[C@@H](C(=O)N[C@@H](C(=O)N[C@H](Cc1c[nH]c2ccccc12)C(N)=O)C(C)C)C(C)C [KSH80, rrrwvwwvvw] (H-[dR][dR][dR][dW][dV][dW][dW][dV][dV][dW]-NH2; N-terminus assumed) | 2.5 µM (≈ 3.82 µg/mL) | 1.25 µM (≈ 1.91 µg/mL) | 10 µM (≈ 15.3 µg/mL) | 1.25 µM (≈ 1.91 µg/mL) |
| CC(C)[C@@H](NC(=O)[C@@H](Cc1c[nH]c2ccccc12)NC(=O)[C@@H](CCCNC(=N)N)NC(=O)[C@@H](CCCNC(=N)N)NC(=O)[C@H](N)CCCNC(=N)N)C(=O)N[C@H](Cc1c[nH]c2ccccc12)C(=O)N[C@@H](C(=O)N[C@@H](C(=O)N[C@H](Cc1c[nH]c2ccccc12)C(=O)N[C@H](Cc1c[nH]c2ccccc12)C(N)=O)C(C)C)C(C)C [KSH81, rrrwvwvvww] (H-[dR][dR][dR][dW][dV][dW][dV][dV][dW][dW]-NH2; N-terminus assumed) | 5 µM (≈ 7.64 µg/mL) | 1.25 µM (≈ 1.91 µg/mL) | 10 µM (≈ 15.3 µg/mL) | 1.25 µM (≈ 1.91 µg/mL) |
| CC(C)[C@@H](NC(=O)[C@@H](Cc1c[nH]c2ccccc12)NC(=O)[C@@H](CCCNC(=N)N)NC(=O)[C@@H](CCCNC(=N)N)NC(=O)[C@H](N)CCCNC(=N)N)C(=O)N[C@H](Cc1c[nH]c2ccccc12)C(=O)N[C@@H](C(=O)N[C@@H](C(=O)N[C@@H](C(=O)N[C@H](Cc1c[nH]c2ccccc12)C(N)=O)C(C)C)C(C)C)C(C)C [KSH82, rrrwvwvvvw] (H-[dR][dR][dR][dW][dV][dW][dV][dV][dV][dW]-NH2; N-terminus assumed) | 10 µM (≈ 14.4 µg/mL) | 1.25 µM (≈ 1.8 µg/mL) | 10 µM (≈ 14.4 µg/mL) | 1.25 µM (≈ 1.8 µg/mL) |
| CC(C)[C@@H](NC(=O)[C@@H](Cc1c[nH]c2ccccc12)NC(=O)[C@H](NC(=O)[C@H](NC(=O)[C@@H](Cc1c[nH]c2ccccc12)NC(=O)[C@@H](CCCNC(=N)N)NC(=O)[C@@H](CCCNC(=N)N)NC(=O)[C@H](N)CCCNC(=N)N)C(C)C)C(C)C)C(=O)N[C@H](Cc1c[nH]c2ccccc12)C(=O)N[C@H](Cc1c[nH]c2ccccc12)C(N)=O [KSH83, rrrwvvwvww] (H-[dR][dR][dR][dW][dV][dV][dW][dV][dW][dW]-NH2; N-terminus assumed) | 5 µM (≈ 7.64 µg/mL) | 1.25 µM (≈ 1.91 µg/mL) | 10 µM (≈ 15.3 µg/mL) | 1.25 µM (≈ 1.91 µg/mL) |
| CC(C)[C@@H](NC(=O)[C@@H](Cc1c[nH]c2ccccc12)NC(=O)[C@H](NC(=O)[C@H](NC(=O)[C@@H](Cc1c[nH]c2ccccc12)NC(=O)[C@@H](CCCNC(=N)N)NC(=O)[C@@H](CCCNC(=N)N)NC(=O)[C@H](N)CCCNC(=N)N)C(C)C)C(C)C)C(=O)N[C@@H](C(=O)N[C@H](Cc1c[nH]c2ccccc12)C(N)=O)C(C)C [KSH84, rrrwvvwvvw] (H-[dR][dR][dR][dW][dV][dV][dW][dV][dV][dW]-NH2; N-terminus assumed) | 2.5 µM (≈ 3.6 µg/mL) | 1.25 µM (≈ 1.8 µg/mL) | 10 µM (≈ 14.4 µg/mL) | 1.25 µM (≈ 1.8 µg/mL) |
| CC(C)[C@@H](NC(=O)[C@@H](Cc1c[nH]c2ccccc12)NC(=O)[C@@H](CCCNC(=N)N)NC(=O)[C@@H](CCCNC(=N)N)NC(=O)[C@H](N)CCCNC(=N)N)C(=O)N[C@@H](C(=O)N[C@@H](C(=O)N[C@@H](C(=O)N[C@H](Cc1c[nH]c2ccccc12)C(=O)N[C@H](Cc1c[nH]c2ccccc12)C(N)=O)C(C)C)C(C)C)C(C)C [KSH85, rrrwvvvvww] (H-[dR][dR][dR][dW][dV][dV][dV][dV][dW][dW]-NH2; N-terminus assumed) | 10 µM (≈ 14.4 µg/mL) | 1.25 µM (≈ 1.8 µg/mL) | 10 µM (≈ 14.4 µg/mL) | 1.25 µM (≈ 1.8 µg/mL) |
| CC(C)[C@@H](NC(=O)[C@@H](Cc1c[nH]c2ccccc12)NC(=O)[C@@H](CCCNC(=N)N)NC(=O)[C@@H](CCCNC(=N)N)NC(=O)[C@H](N)CCCNC(=N)N)C(=O)N[C@@H](C(=O)N[C@@H](C(=O)N[C@@H](C(=O)N[C@@H](C(=O)N[C@H](Cc1c[nH]c2ccccc12)C(N)=O)C(C)C)C(C)C)C(C)C)C(C)C [KSH86, rrrwvvvvvw] (H-[dR][dR][dR][dW][dV][dV][dV][dV][dV][dW]-NH2; N-terminus assumed) | 10 µM (≈ 13.5 µg/mL) | 1.25 µM (≈ 1.69 µg/mL) | 10 µM (≈ 13.5 µg/mL) | 1.25 µM (≈ 1.69 µg/mL) |
| CC(C)[C@@H](NC(=O)[C@@H](Cc1c[nH]c2ccccc12)NC(=O)CNC(=O)[C@@H](CCCNC(=N)N)NC(=O)[C@@H](CCCNC(=N)N)NC(=O)[C@H](N)CCCNC(=N)N)C(=O)N[C@H](Cc1c[nH]c2ccccc12)C(=O)N[C@@H](C(=O)N[C@@H](C(=O)N[C@H](Cc1c[nH]c2ccccc12)C(=O)N[C@H](CCCCN)C(N)=O)C(C)C)C(C)C [KSH90, rrrgwvwvvwk] (H-[dR][dR][dR]G[dW][dV][dW][dV][dV][dW][dK]-NH2; N-terminus assumed) | 5 µM (≈ 7.63 µg/mL) | 1.25 µM (≈ 1.91 µg/mL) | 5 µM (≈ 7.63 µg/mL) | 1.25 µM (≈ 1.91 µg/mL) |
| CC[C@@H](C)[C@@H](NC(=O)[C@@H](Cc1c[nH]c2ccccc12)NC(=O)[C@H](NC(=O)[C@@H](CC(C)C)NC(=O)[C@H](N)Cc1c[nH]c2ccccc12)[C@H](C)CC)C(=O)NCC(=O)N[C@H](CC(C)C)C(=O)N[C@H](CCCNC(=N)N)C(=O)N[C@H](CCCCN)C(=O)N[C@H](CCCCN)C(=O)N[C@H](CCCNC(=N)N)C(N)=O [KSH I, wliwiglrkk r] (H-[dW][dL][dI][dW][dI]G[dL][dR][dK][dK][dR]-NH2; N-terminus assumed) | 10 µM (≈ 14.7 µg/mL) | 2.5 µM (≈ 3.67 µg/mL) | 1.25 µM (≈ 1.83 µg/mL) | 2.5 µM (≈ 3.67 µg/mL) |
